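Tested at 5 concentrations; 48 h exposure; 96-well plates; endpoints linearly interpolated, else capped at highest concentration. GI50 marks 50% less growth. TGI: concentration producing complete growth inhibition.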
How the values were obtained:
Test in all cases: NCI-60 cell line screen, 48 h
786-0 renal = system: 786-0 renal
HOP-92 NSCLC = system: HOP-92 NSCLC
HS 578T breast = system: HS 578T breast
K-562 leukemia = system: K-562 leukemia
MDA-MB-435 = system: MDA-MB-435
OVCAR-4 ovarian = system: OVCAR-4 ovarian
SK-MEL-2 melanoma = system: SK-MEL-2 melanoma
SNB-19 CNS = system: SNB-19 CNS
SNB-75 CNS = system: SNB-75 CNS
UACC-257 melanoma = system: UACC-257 melanoma

SMILES | GI50 (786-0 renal) [µM] | TGI (786-0 renal) [µM] | GI50 (HOP-92 NSCLC) [µM] | TGI (HOP-92 NSCLC) [µM] | GI50 (HS 578T breast) [µM] | TGI (HS 578T breast) [µM] | GI50 (K-562 leukemia) [µM] | TGI (K-562 leukemia) [µM] | GI50 (MDA-MB-435) [µM] | TGI (MDA-MB-435) [µM] | GI50 (OVCAR-4 ovarian) [µM] | TGI (OVCAR-4 ovarian) [µM] | GI50 (SK-MEL-2 melanoma) [µM] | TGI (SK-MEL-2 melanoma) [µM] | GI50 (SNB-19 CNS) [µM] | TGI (SNB-19 CNS) [µM] | GI50 (SNB-75 CNS) [µM] | TGI (SNB-75 CNS) [µM] | TGI (UACC-257 melanoma) [µM] | GI50 (UACC-257 melanoma) [µM]
COc1nc(N)nc2c1ncn2C1OC(CO)C(O)C1O (stereo not drawn) | > 5000 | > 5000 | 2640 | > 5000 | > 5000 | > 5000 | > 5000 | > 5000 | > 5000 | > 5000 | > 5000 | > 5000 | 2570 | > 5000 | > 5000 | > 5000 | > 5000 | > 5000 | > 5000 | 
COc1ccc(OC)c(-c2cc(-c3ccc(Cl)cc3)nn2-c2ccc(S(=O)(=O)NC(C)=O)cc2)c1 | 3.03 | 12.1 | 10.2 | 33.2 | 38.2 | > 100 | 3.18 | > 100 | 45.3 | > 100 |  |  | 26.6 | 70 | 10.6 | 28.7 |  |  | 34.2 | 16.8
CCn1c(-c2cc3ccccc3cc2O)nn(C(=O)c2c(Cl)cccc2Cl)c1=S | 10.8 | 27.4 | > 50 | > 50 | 8.76 | 21.5 | 14.3 | > 50 | > 50 | > 50 | > 50 | > 50 | 9.05 | 21.1 | > 50 | > 50 | 42.5 | > 50 | > 50 | > 50
CN/N=C(\C)C(CN(C)C)C(c1ccccc1)c1c(O)c2ccccc2oc1=O (stereo not drawn) |  | > 100 |  | 6.78 |  | > 100 |  | > 100 |  | > 100 |  | > 100 |  | > 100 |  | > 100 |  | > 100 | > 100 | 
O=C1/C(=C\c2ccccn2)c2ccccc2N1c1c(Cl)cccc1Cl | 1.84 | 3.49 |  | 6.28 | 3.92 | 37.4 | 3.89 | > 100 | 1.93 | 5.03 | 3.14 | 26.8 | 2.53 | 6.32 | 2.28 | 6.25 | 2.01 | 15.4 | 6.19 | 2.2
N#CCN/C=C\C(=O)c1ccc(Cl)cc1 | 33.4 | > 100 |  |  | 37.1 | > 100 | 31.1 | > 100 | 30.3 | > 100 | 76.9 | > 100 | 20 | 53.9 | 31.4 | > 100 |  |  | > 100 | 31.9
Cc1cc(CC(C)CC(C)(C)C)n(O)c(=O)c1 (stereo not drawn) (tested in a mixture with another compound) | 1.8 | 5.7 | 0.174 | 1.88 | 8.07 | > 62.1 | 0.258 | 15.2 | 0.559 | 24.9 | 0.358 | > 84.4 | 0.766 | > 100 | 0.519 | > 100 | 1.61 | 61.2 | > 100 | 0.507
Cc1ccc(C)c(C2NC(=O)c3ccccc3N2)c1 (stereo not drawn) |  | > 64 |  | > 100 |  | 7.73 |  | > 30.1 |  | 0.832 |  | > 100 |  | 72.6 |  | > 49.5 |  | 15.2 | > 100 | 
N#CC1=C(N)NC(N2CCOCC2)=NC12Nc1ccccc1N2 | 13 | 40 | > 100 | > 100 | 18.9 | 54.2 | > 100 | > 100 | 31 | > 100 | > 100 | > 100 | 20.1 | 47.4 | 40 | > 100 | > 100 | > 100 | 49.1 | 22.9
CN1C(=O)N[C@H]2[C@@H]3NC(=O)c4ccc(Br)n4[C@@H]3C[C@]21O | 0.223 | 1.82 | 0.0955 | 1.28 | 0.102 | 1.42 | 0.0827 | 1.43 | 0.156 | 1.72 | 0.093 | 1.56 | 0.0568 | 0.194 | 0.0351 | 0.576 | 0.106 | 0.969 | 1.52 | 0.108
O=c1c(Cl)c(Cl)c(=O)c2sc3cc(Cl)ccc3[nH]c1=2 |  | > 100 |  | 33.4 |  | > 100 |  | 34.6 |  | > 100 |  | 22 |  | > 100 |  | > 100 |  | > 100 | 35.3 | 
COc1cc(-c2nc(-c3nc4ccccc4[nH]3)cc3c2[nH]c2ccccc23)cc(OC)c1OC | 50.7 | > 100 | 0.526 | 5.38 | 4.44 | > 100 | 4.33 | > 100 | 3.65 | > 100 | 47.4 | > 100 | 3.58 | > 100 | 9.45 | > 100 |  |  | > 100 | 3.57
NC(=O)c1cccc(Nc2nccc(Nc3cccc4[nH]ncc34)n2)c1 | 10.8 | > 25 | 3 | 12.2 | 0.557 | 3.21 | 4.53 | > 25 | 8.58 | > 25 | 13.2 | > 25 | 7.91 | 17.8 | 12.7 | > 25 | 4.58 | 15.6 | > 25 | > 19.2
CN(Cc1cc(Cl)cc(Cl)c1)CC(C(=O)c1ccccc1)c1ccccc1 (stereo not drawn) |  | 10.4 |  | > 91.3 |  | > 57.7 |  | > 100 |  | 16 |  | 12.4 |  | 29.7 |  | > 53 |  | 31.3 | 14.9 | 
